These results are taken from US20150141381A1, “TETRACYCLINE COMPOUNDS HAVING TARGET THERAPEUTIC ACTIVITIES” (Paratek Pharmaceuticals, Inc., priority 2001, published 2015).

Read-outs that look alike come from different tables or passages of the source. Bounds are passed on as bounds.

One assay relates to S. aureus RN450. The experiment in a line: In Vitro Anti-Bacterial Activity Assay (MIC), gram positive. In kind it is cell-based. Conditions: for MIC: Staphylococcus aureus, RN450, 18 h.
The test system of a further assay is E. coli mL308 225. Description: In Vitro Anti-Bacterial Activity Assay (MIC), gram negative. In kind it is cell-based. Conditions: for MIC: Escherichia coli, ML308225, 18 h.
Where [1] appears, read: MIC class, Table 3, read-out: Antibiotic Activity Gram +.
Setting [2] is: MIC class, Table 3, read-out: Antibiotic Activity Gram −.
[3] abbreviates: gram positive bacteria, read-out: Antibiotic Activity Gram + (MIC).
Where [4] appears, read: gram negative bacteria, read-out: Antibiotic Activity Gram − (MIC).
Setting [5] is: MIC class, Table 3 (Continued), read-out: Gram+ activity.
[6] abbreviates: MIC class, Table 3 (Continued), read-out: Gram− activity.

For `CCCCOc1ccc(I)c2c1C(=O)C1=C(O)[C@]3(O)C(=O)C(C(N)=O)=C(O)[C@@H](N(C)C)[C@@H]3C[C@@H]1C2` [OS], the MIC with S. aureus RN450 (setting [1]) and in the assay with E. coli mL308 225 (setting [2]) was more than 4 µg/mL throughout.
`COc1ccc(-c2ccc(O)c3c2C[C@H]2C[C@H]4[C@H](N(C)C)C(O)=C(C(N)=O)C(=O)[C@@]4(O)C(O)=C2C3=O)cc1` [drawing 3425]: the MIC in the assay on S. aureus RN450 (setting [3]) and in the assay with E. coli mL308 225 (setting [4]) was less than 4 µg/mL in each case.
With `CN(C)[C@@H]1C(O)=C(C(N)=O)C(=O)[C@@]2(O)C(O)=C3C(=O)c4c(O)ccc(CNC(=O)c5ccccn5)c4C[C@H]3C[C@@H]12`, the figures for the MIC in the assay with S. aureus RN450 (setting [3]) and in the assay on E. coli mL308 225 (setting [4]) were less than 4 µg/mL and more than 4 µg/mL, respectively.
As for `CN(C)[C@@H]1C(O)=C(C(N)=O)C(=O)[C@@]2(O)C(O)=C3C(=O)c4c(O)ccc(CNCc5ccccc5)c4C[C@H]3C[C@@H]12`, the MIC in the assay on S. aureus RN450 (setting [3]) and with E. coli mL308 225 (setting [4]) was less than 4 µg/mL each time.
In the case of `CC(=O)NCc1cc(N(C)C)c2c(c1O)C(=O)C1=C(O)[C@]3(O)C(=O)C(C(N)=O)=C(O)[C@@H](N(C)C)[C@@H]3C[C@@H]1C2`, the MIC in the assay with S. aureus RN450 (setting [3]) is less than 4 µg/mL; in the assay on E. coli mL308 225 (setting [4]), more than 4 µg/mL.
For `CC(=O)c1cc(C(C)(C)C)c(O)c2c1C[C@H]1C[C@H]3[C@H](N(C)C)C(O)=C(C(N)=O)C(=O)[C@@]3(O)C(O)=C1C2=O` the same measures were less than 4 µg/mL and less than 4 µg/mL.
Turning to `CN(C)[C@@H]1C(O)=C(C(N)=O)C(=O)[C@@]2(O)C(O)=C3C(=O)c4c(O)ccc(-c5ccc(C(C)(C)C)cc5)c4C[C@H]3C[C@@H]12` [drawing 3426], the MIC with S. aureus RN450 (setting [3]) and with E. coli mL308 225 (setting [4]) was less than 4 µg/mL throughout.
Turning to `CN(C)[C@@H]1C(O)=C(C(N)=O)C(=O)[C@@]2(O)C(O)=C3C(=O)c4c(O)ccc(C#CCCC#Cc5ccc(O)c6c5C[C@H]5C[C@H]7[C@H](N(C)C)C(O)=C(C(N)=O)C(=O)[C@@]7(O)C(O)=C5C6=O)c4C[C@H]3C[C@@H]12` [FM], the MIC with S. aureus RN450 (setting [1]) and in the assay with E. coli mL308 225 (setting [2]) was more than 4 µg/mL throughout.
Regarding `CCOC(=O)Nc1cc(N(C)C)c2c(c1O)C(=O)C1=C(O)[C@]3(O)C(=O)C(C(N)=O)=C(O)[C@@H](N(C)C)[C@@H]3C[C@@H]1C2` [drawing 3364], the “Antibiotic Activity Gram + (MIC)” value with S. aureus RN450 (gram positive bacteria) was “** (compounds with MIC less than or equal to 4 μg/ml are indicated with **)”. Moreover, the “Antibiotic Activity Gram − (MIC)” value in the assay with E. coli mL308 225 (gram negative bacteria) is listed as “** (compounds with MIC less than or equal to 4 μg/ml are indicated with **)”.
With `COc1ccc(-c2ccc(O)c3c2C[C@H]2C[C@H]4[C@H](N(C)C)C(O)=C(C(N)=O)C(=O)[C@@]4(O)C(O)=C2C3=O)cc1` [drawing 3312], the “Gram+ activity” value with S. aureus RN450 (MIC class, Table 3 (Continued)) is “** (compounds with MIC less than or equal to 4 μg/ml are indicated with **)”. Also, in the assay on E. coli mL308 225 (MIC class, Table 3 (Continued)), the “Gram− activity” value is recorded as “** (compounds with MIC less than or equal to 4 μg/ml are indicated with **)”.
As for `CN(C)c1cc(CN2CCc3ccccc3C2)c(O)c2c1C[C@H]1C[C@H]3[C@H](N(C)C)C(O)=C(C(N)=O)C(=O)[C@@]3(O)C(O)=C1C2=O`, the MIC in the assay with S. aureus RN450 (setting [3]) and in the assay with E. coli mL308 225 (setting [4]) was less than 4 µg/mL in each case.
As to `CN(C)c1ccc(-c2ccc(O)c3c2C[C@H]2C[C@H]4[C@H](N(C)C)C(O)=C(C(N)=O)C(=O)[C@@]4(O)C(O)=C2C3=O)cc1`, the MIC with S. aureus RN450 (setting [5]) and in the assay with E. coli mL308 225 (setting [6]) was less than 4 µg/mL in each case.
As for `C[C@H]1c2ccc(CN3CCC4(CC3)OCCO4)c(O)c2C(=O)C2=C(O)[C@]3(O)C(=O)C(C(N)=O)=C(O)[C@@H](N(C)C)[C@@H]3[C@@H](O)[C@@H]21`, the MIC with S. aureus RN450 (setting [3]) and with E. coli mL308 225 (setting [4]) was less than 4 µg/mL each time.
With `Cc1ccc(-c2ccc(O)c3c2C[C@H]2C[C@H]4[C@H](N(C)C)C(O)=C(C(N)=O)C(=O)[C@@]4(O)C(O)=C2C3=O)cc1N`, the MIC with S. aureus RN450 (setting [3]) and in the assay with E. coli mL308 225 (setting [4]) was less than 4 µg/mL in each case.
Regarding `CN(C)[C@@H]1C(O)=C(C(N)=O)C(=O)[C@@]2(O)C(O)=C3C(=O)c4c(ccc(NC(=O)Nc5cccc6ccccc56)c4O)C[C@H]3C[C@@H]12` [AU], the MIC was less than 4 µg/mL in the assay with S. aureus RN450 (setting [1]) and more than 4 µg/mL in the assay on E. coli mL308 225 (setting [2]).
`CN(C)[C@@H]1C(O)=C(C(N)=O)C(=O)[C@@]2(O)C(O)=C3C(=O)c4c(O)ccc(-c5ccco5)c4C[C@H]3C[C@@H]12`: the MIC in the assay with S. aureus RN450 (setting [5]) and in the assay on E. coli mL308 225 (setting [6]) was less than 4 µg/mL in each case.
Turning to `COc1ccc(-c2ccc3c(c2O)C(=O)C2=C(O)[C@]4(O)C(=O)C(C(N)=O)=C(O)[C@@H](N(C)C)[C@@H]4[C@@H](O)[C@@H]2C3C)cc1` (some centres unmarked), the MIC in the assay on S. aureus RN450 (setting [5]) and in the assay on E. coli mL308 225 (setting [6]) was less than 4 µg/mL throughout.
Take `CN(C)[C@@H]1C(O)=C(C(N)=O)C(=O)[C@@]2(O)C(O)=C3C(=O)c4c(O)ccc(C#CC5=CCCCC5)c4C[C@H]3C[C@@H]12`: the MIC in the assay on S. aureus RN450 (setting [5]) and in the assay with E. coli mL308 225 (setting [6]) was less than 4 µg/mL each time.
For `CC(C)CN(Cc1ccc(O)c2c1C[C@H]1C[C@H]3[C@H](N(C)C)C(O)=C(C(N)=O)C(=O)[C@@]3(O)C(O)=C1C2=O)CC(C)C`, the MIC in the assay with S. aureus RN450 (setting [3]) and with E. coli mL308 225 (setting [4]) was less than 4 µg/mL throughout.
As to `CN(C)[C@@H]1C(O)=C(C(N)=O)C(=O)[C@@]2(O)C(O)=C3C(=O)c4c(O)ccc(-c5cccc(NC(=O)c6ccno6)c5)c4C[C@H]3C[C@@H]12`, the MIC in the assay with S. aureus RN450 (setting [3]) is less than 4 µg/mL; in the assay on E. coli mL308 225 (setting [4]), more than 4 µg/mL.
In the case of `COc1ccc(CNCc2cccc(C)c2)cc1-c1ccc(O)c2c1C[C@H]1C[C@H]3C(N(C)C)C(O)=C(C(N)=O)C(=O)[C@@]3(O)C(O)=C1C2=O` (some centres unmarked) [HO], the MIC in the assay on S. aureus RN450 (setting [1]) and in the assay on E. coli mL308 225 (setting [2]) was less than 4 µg/mL in each case.
Turning to `COc1ccc(CNCC(C)C)cc1-c1ccc(O)c2c1C[C@H]1C[C@H]3[C@H](N(C)C)C(O)=C(C(N)=O)C(=O)[C@@]3(O)C(O)=C1C2=O` [EG], the MIC in the assay with S. aureus RN450 (setting [1]) and with E. coli mL308 225 (setting [2]) was less than 4 µg/mL each time.
Consider `CCc1cc(CNC(=O)N2CCOCC2)c2c(c1O)C(=O)C1=C(O)[C@]3(O)C(=O)C(C(N)=O)=C(O)[C@@H](N(C)C)[C@@H]3C[C@@H]1C2`, for which the MIC in the assay on S. aureus RN450 (setting [3]) and with E. coli mL308 225 (setting [4]) was more than 4 µg/mL each time.
As to `CN(C)CC(=O)NCc1ccc(-c2ccc(O)c3c2C[C@H]2C[C@H]4[C@H](N(C)C)C(O)=C(C(N)=O)C(=O)[C@@]4(O)C(O)=C2C3=O)cc1`, the values for the MIC with S. aureus RN450 (setting [3]) and in the assay with E. coli mL308 225 (setting [4]) were less than 4 µg/mL and more than 4 µg/mL, respectively.
`CC(C)CNCc1cc(N(C)C)c2c(c1O)C(=O)C1=C(O)[C@]3(O)C(=O)C(C(N)=O)=C(O)[C@@H](N(C)C)[C@@H]3C[C@@H]1C2` [drawing 3497]: the “Antibiotic Activity Gram + (MIC)” value in the assay on S. aureus RN450 (gram positive bacteria) is given as “** (compounds with MIC less than or equal to 4 μg/ml are indicated with **)”. The “Antibiotic Activity Gram − (MIC)” value with E. coli mL308 225 (gram negative bacteria) is “* (compounds with an MIC of greater than 4 μg/ml are indicated with *)”.
